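Five concentrations, 48 hours, 96-well plates. TGI marks complete inhibition of growth.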
How the values were obtained:
Assay in all cases: NCI anticancer screen, dose series, 48 h
[1] = tested on: SNB-19 CNS
[2] = tested on: MCF7 breast
[3] = tested on: SK-MEL-2 melanoma
[4] = tested on: OVCAR-8 ovarian
[5] = tested on: MDA-MB-231 breast
[6] = tested on: UO-31 renal
[7] = tested on: HS 578T breast
[8] = tested on: RPMI-8226 leukemia
[9] = tested on: IGROV1 ovarian
[10] = tested on: SK-OV-3 ovarian
[11] = tested on: LOX IMVI melanoma
[12] = tested on: TK-10 renal
[13] = tested on: NCI/ADR-RES ovarian
[14] = tested on: OVCAR-3 ovarian
[15] = tested on: M14 melanoma
[16] = tested on: SNB-75 CNS
[17] = tested on: OVCAR-5 ovarian
[18] = tested on: NCI-H23 lung
[19] = tested on: CCRF-CEM leukemia
[20] = tested on: HCC-2998 colon
[21] = tested on: EKVX NSCLC
[22] = tested on: SF-268 CNS
[23] = tested on: SN12C renal
[24] = tested on: UACC-257 melanoma
[25] = tested on: ACHN renal
[26] = tested on: NCI-H226 lung
[27] = tested on: SK-MEL-5 melanoma
[28] = tested on: A498 renal
[29] = tested on: A549 NSCLC
[30] = tested on: SK-MEL-28 melanoma
[31] = tested on: MDA-N
[32] = tested on: HL-60(TB) leukemia
[33] = tested on: SW-620 colon
[34] = tested on: PC-3 prostate
[35] = tested on: RXF 393 renal
[36] = tested on: NCI-H460 lung
[37] = tested on: U251 CNS
[38] = tested on: HCT-116 colon
[39] = tested on: KM12 colon
[40] = tested on: BT-549 breast
[41] = tested on: COLO 205 colon
[42] = tested on: NCI-H522 lung
[43] = tested on: MALME-3M melanoma
[44] = tested on: HOP-62 NSCLC
[45] = tested on: MDA-MB-435
[46] = tested on: 786-0 renal
[47] = tested on: OVCAR-4 ovarian
[48] = tested on: CAKI-1 renal
[49] = tested on: T-47D breast
[50] = tested on: HOP-92 NSCLC
[51] = tested on: SF-295 CNS
[52] = tested on: DU-145 prostate
[53] = tested on: HT29 colon
[54] = tested on: UACC-62 melanoma
[55] = tested on: HCT-15 colon
[56] = tested on: K-562 leukemia
[57] = tested on: SR leukemia
[58] = tested on: MOLT-4 leukemia

For `Cc1cc(CN2CCCCC2)c(O)c(CN2CCCCC2)c1`, the TGI [1] was over 100 µM, the TGI [2] was over 100 µM and the TGI [3] was over 100 µM. It also gave a TGI [4] of over 100 µM, a TGI [5] of over 100 µM and a TGI [6] of over 100 µM. The TGI [7] was over 100 µM, the TGI [8] was over 100 µM and the TGI [9] was over 100 µM. The TGI [10] was over 100 µM, the TGI [11] was over 100 µM and the TGI [12] was over 100 µM. The TGI [13] was over 100 µM, the TGI [14] was over 100 µM and the TGI [15] was over 100 µM. For the same molecule, the TGI [16] was over 100 µM, the TGI [17] was over 100 µM and the TGI [18] was over 100 µM. It also gave a TGI [19] of over 100 µM, a TGI [20] of over 100 µM and a TGI [21] of over 100 µM. The TGI [22] was over 100 µM, the TGI [23] was over 100 µM and the TGI [24] was over 100 µM. The TGI [25] was over 100 µM, the TGI [26] was over 100 µM and the TGI [27] was over 100 µM. The TGI [28] was over 100 µM, the TGI [29] was over 100 µM and the TGI [30] was over 100 µM. The TGI [31] was over 100 µM, the TGI [32] was over 100 µM and the TGI [33] was over 100 µM. For the same molecule, the TGI [34] was over 100 µM, the TGI [35] was over 100 µM and the TGI [36] was over 100 µM. The TGI [37] was over 100 µM, the TGI [38] was over 100 µM and the TGI [39] was over 100 µM. For the same molecule, the TGI [40] was over 100 µM, the TGI [41] was over 100 µM and the TGI [42] was over 100 µM. It also gave a TGI [43] of over 100 µM, a TGI [44] of over 100 µM and a TGI [45] of over 100 µM. It also gave a TGI [46] of over 100 µM, a TGI [47] of over 100 µM and a TGI [48] of over 100 µM. It also gave a TGI [49] of over 100 µM, a TGI [50] of over 100 µM and a TGI [51] of over 100 µM. The TGI [52] was over 100 µM, the TGI [53] was over 100 µM and the TGI [54] was over 100 µM. For the same molecule, the TGI [55] was over 100 µM, the TGI [56] was over 100 µM and the TGI [57] was over 100 µM.

`CC(=O)c1c(C)cn(S(=O)(=O)NC(=O)Nc2nncs2)c1C` showed a TGI [1] of over 100 µM, a TGI [2] of over 100 µM and a TGI [3] of over 100 µM. It also gave a TGI [4] of over 100 µM, a TGI [5] of over 100 µM and a TGI [6] of over 100 µM. For the same molecule, the TGI [7] was over 100 µM, the TGI [8] was over 100 µM and the TGI [9] was over 100 µM. For the same molecule, the TGI [10] was over 100 µM, the TGI [11] was over 100 µM and the TGI [12] was over 100 µM. The TGI [13] was over 100 µM, the TGI [14] was over 100 µM and the TGI [15] was over 100 µM. For the same molecule, the TGI [16] was over 100 µM, the TGI [17] was over 100 µM and the TGI [18] was over 100 µM. The TGI [19] was 78.1 µM, the TGI [20] was over 100 µM and the TGI [21] was over 100 µM. The TGI [22] was over 100 µM, the TGI [23] was over 100 µM and the TGI [24] was over 100 µM. For the same molecule, the TGI [25] was over 100 µM, the TGI [26] was over 100 µM and the TGI [27] was over 100 µM. It also gave a TGI [28] of over 100 µM, a TGI [29] of over 100 µM and a TGI [30] of over 100 µM. It also gave a TGI [31] of over 100 µM, a TGI [58] of over 100 µM and a TGI [32] of over 100 µM. It also gave a TGI [33] of over 100 µM, a TGI [34] of over 100 µM and a TGI [35] of over 100 µM. It also gave a TGI [36] of over 100 µM, a TGI [37] of over 100 µM and a TGI [38] of over 100 µM. For the same molecule, the TGI [39] was over 100 µM, the TGI [40] was over 100 µM and the TGI [41] was over 100 µM. It also gave a TGI [42] of over 100 µM, a TGI [43] of over 100 µM and a TGI [44] of over 100 µM. The TGI [45] was over 100 µM, the TGI [46] was over 100 µM and the TGI [47] was over 100 µM. It also gave a TGI [48] of over 100 µM, a TGI [49] of over 100 µM and a TGI [50] of over 100 µM. It also gave a TGI [51] of over 100 µM, a TGI [52] of over 100 µM and a TGI [53] of over 100 µM. It also gave a TGI [54] of over 100 µM, a TGI [55] of over 100 µM and a TGI [56] of over 100 µM. It also gave a TGI [57] of over 100 µM.

Reference: PubChem BioAssay (NCI)
